This passage reports EC50 results from patent EP4596574A1, “GLP-1/GCG/GIP TRIPLE-RECEPTOR AGONIST AND USE THEREOF” (Sunshine Lake Pharma Co., Ltd., priority 2022, dated 2024).

The structures appear in SMILES notation. pEC50: −log10 of the molar value. Starred links: 1 amine or outer side, 2 acyl side, 3 side chain; linkers in the order of their positions; H or OH if unused. Non-standard residues stand in square brackets, D forms with d. Residues, ends and D or L forms follow the SMILES beside them. Groups on a side chain read outwards from the residue. *: point of attachment. C20 diacid = O=C(O)CCCCCCCCCCCCCCCCCCC(=O)*; αMePhe(2-F) = C[C@](N)(Cc1ccccc1F)C(=O)O; γGlu = O=C(O)[C@H](CCC(=O)[*:2])N[*:1]; AEEA = NCCOCCOCC(=O)O; Aib = CC(C)(N)C(=O)O

Holding throughout (assay type): cell-based
Test [1] has as its target T1, GLP-1R (Homo sapiens, UniProt P43220).
T1 construct: expressed in transfected cells; host or cells: HEK293 (HEK293-GLP-1R)
Kind of test: In vitro cell activity, cAMP production in HEK293 cells expressing GLP-1R. The settings on record: HEK293-GLP-1R cells, cAMP; read-out: GLP-1R (EC50). The method, then: (§1) After they were completely thawed within 1.5 minutes, the cells were added dropwise into a 15 mL centrifuge tube containing 8 mL of warm culture medium in a clean bench. The tubes were centrifuged at 900 rpm for 5 minutes, the supernatant was discarded, and the cells were resuspended in 1 mL of complete culture medium (by pipetting 15 times). 20 µL of the suspension was immediately taken and mixed with an equal volume of trypan blue. 20 µL was taken to count the number of live cells, and the cells were diluted to 4×10^5 cells/mL with complete culture medium. • 4) The 384-well plate was divided into GLP-1R cell, GCGR cell and GIPR cell areas. The cell suspension was added to the wells of the corresponding area at 5 µL per well using a 12-channel variable-channel adjustable dispenser. […] Then, the diluted cAMP-d2 working solution and anti-cAMP-crytate working solution were mixed evenly in a ratio of 1:1, and 10 µL was added to each well of the sample group. The wells were covered with white lids and placed at room temperature in the dark for 1 hour or at 4 °C overnight. • 6) The fluorescence values at 665 nm and 620 nm were detected in a multifunctional microplate reader. In GraphPad Prism 6, the signal ratio and sample concentration were nonlinearly fitted using a four-parameter equation to obtain the EC50 value.
Background: cAMP levels reflect the balance of adenylyl cyclase and phosphodiesterase activity.

Test [2] has as its target T2, GCGR (Homo sapiens, UniProt P47871).
T2 construct: expressed in transfected cells; host or cells: HEK293 (HEK293-GCGR)
Kind of test: In vitro cell activity, cAMP production in HEK293 cells expressing GCGR. The note with it: HEK293-GCGR cells, cAMP; read-out: GCGR (EC50). How it is done: as §1

For test [3], the target named is T3, GIPR (Homo sapiens, UniProt P48546).
T3 construct: expressed in transfected cells; host or cells: HEK293 (HEK293-GIPR)
T3 sequence (P48546 22-466): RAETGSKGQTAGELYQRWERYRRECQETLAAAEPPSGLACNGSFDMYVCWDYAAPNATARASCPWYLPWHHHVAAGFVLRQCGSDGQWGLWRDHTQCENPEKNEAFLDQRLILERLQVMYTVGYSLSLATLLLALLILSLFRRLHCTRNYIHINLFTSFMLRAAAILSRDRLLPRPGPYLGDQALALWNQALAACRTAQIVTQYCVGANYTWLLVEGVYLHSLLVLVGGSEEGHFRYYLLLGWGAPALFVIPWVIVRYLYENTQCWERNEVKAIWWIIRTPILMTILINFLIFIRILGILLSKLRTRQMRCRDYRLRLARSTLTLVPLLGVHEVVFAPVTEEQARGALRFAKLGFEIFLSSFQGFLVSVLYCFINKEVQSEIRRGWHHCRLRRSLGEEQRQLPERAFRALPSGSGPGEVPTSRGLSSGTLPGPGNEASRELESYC
Kind of test: In vitro cell activity, cAMP production in HEK293 cells expressing GIPR. The note with it: HEK293-GIPR cells, cAMP; read-out: GIPR (EC50). How it is done: as §1, with “The wells were covered with white lids and placed at room temperature in the dark for 1 hour or at 4 °C overnight. • 6) The fluorescence values at 665 nm and 620 nm were detected in a multifunctional microplate reader.” left out

T2 sequence (P47871 26-477, species assumed): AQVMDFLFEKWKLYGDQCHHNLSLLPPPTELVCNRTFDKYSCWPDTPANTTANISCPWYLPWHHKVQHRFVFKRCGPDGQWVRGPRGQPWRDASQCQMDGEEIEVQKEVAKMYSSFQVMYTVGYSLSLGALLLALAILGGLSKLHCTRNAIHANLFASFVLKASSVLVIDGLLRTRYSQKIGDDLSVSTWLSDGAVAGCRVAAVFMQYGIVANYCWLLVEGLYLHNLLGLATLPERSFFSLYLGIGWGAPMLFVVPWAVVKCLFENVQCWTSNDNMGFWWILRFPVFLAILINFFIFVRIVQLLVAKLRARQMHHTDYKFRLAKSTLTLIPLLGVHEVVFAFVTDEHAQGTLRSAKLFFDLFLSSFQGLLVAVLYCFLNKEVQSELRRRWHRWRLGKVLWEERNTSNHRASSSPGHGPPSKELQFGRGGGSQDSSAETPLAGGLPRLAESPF
T1 sequence (P43220 24-463, species assumed): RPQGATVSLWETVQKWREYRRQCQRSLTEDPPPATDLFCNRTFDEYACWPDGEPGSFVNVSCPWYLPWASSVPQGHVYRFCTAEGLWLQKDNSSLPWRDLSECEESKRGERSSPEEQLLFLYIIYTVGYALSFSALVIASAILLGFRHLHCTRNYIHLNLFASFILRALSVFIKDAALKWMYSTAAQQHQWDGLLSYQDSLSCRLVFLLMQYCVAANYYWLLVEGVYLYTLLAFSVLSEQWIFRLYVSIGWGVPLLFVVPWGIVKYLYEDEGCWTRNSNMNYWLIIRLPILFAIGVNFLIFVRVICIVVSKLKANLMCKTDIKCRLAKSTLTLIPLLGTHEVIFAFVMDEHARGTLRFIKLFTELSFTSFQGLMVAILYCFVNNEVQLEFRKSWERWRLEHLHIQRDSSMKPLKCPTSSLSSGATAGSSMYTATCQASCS

Take `CC[C@H](C)[C@H](NC(=O)[C@H](CC(C)C)NC(=O)[C@H](Cc1c[nH]c2ccccc12)NC(=O)[C@H](CCC(N)=O)NC(=O)[C@@H](NC(=O)[C@H](Cc1ccccc1)NC(=O)[C@H](C)NC(=O)[C@H](CCC(N)=O)NC(=O)[C@H](CCC(N)=O)NC(=O)[C@H](C)NC(=O)[C@H](CCCCNC(=O)COCCOCCNC(=O)CC[C@H](NC(=O)CCCCCCCCCCCCCCCCCCC(=O)O)C(=O)O)NC(=O)[C@H](CCC(=O)O)NC(=O)[C@H](CC(=O)O)NC(=O)[C@H](CC(C)C)NC(=O)[C@H](CC(C)C)NC(=O)[C@@H](NC(=O)[C@H](CO)NC(=O)[C@H](Cc1ccc(O)cc1)NC(=O)[C@H](CC(=O)O)NC(=O)[C@H](CO)NC(=O)[C@@H](NC(=O)[C@](C)(Cc1ccccc1F)NC(=O)[C@@H](NC(=O)CNC(=O)[C@H](CCC(N)=O)NC(=O)C(C)(C)NC(=O)[C@@H](N)Cc1ccc(O)cc1)[C@@H](C)O)[C@@H](C)O)[C@@H](C)CC)C(C)C)C(=O)N[C@@H](C)C(=O)NCC(=O)NCC(=O)N1CCC[C@H]1C(=O)N[C@@H](CO)C(=O)N[C@@H](CO)C(=O)NCC(=O)N[C@@H](C)C(=O)N1CCC[C@H]1C(=O)N1CCC[C@H]1C(=O)N1CCC[C@H]1C(=O)N[C@@H](CO)C(=O)O` [HEC-PT92]: the figures for the pEC50 in test [1], in test [2] and in test [3] were 9.98, 8.73 and 10.11, respectively.

In the case of `CC[C@H](C)[C@H](NC(=O)[C@H](CCC(=O)O)NC(=O)[C@H](CC(=O)O)NC(=O)[C@H](CC(C)C)NC(=O)[C@H](CC(C)C)NC(=O)[C@@H](NC(=O)[C@H](CO)NC(=O)[C@H](Cc1ccc(O)cc1)NC(=O)[C@H](CC(=O)O)NC(=O)[C@H](CO)NC(=O)[C@@H](NC(=O)[C@](C)(Cc1ccccc1F)NC(=O)[C@@H](NC(=O)CNC(=O)[C@H](CCC(N)=O)NC(=O)C(C)(C)NC(=O)[C@@H](N)Cc1c[nH]cn1)[C@@H](C)O)[C@@H](C)O)[C@@H](C)CC)C(=O)N[C@@H](C)C(=O)N[C@@H](CCC(N)=O)C(=O)N[C@@H](CCCCNC(=O)COCCOCCNC(=O)COCCOCCNC(=O)CC[C@H](NC(=O)CCCCCCCCCCCCCCCCCCC(=O)O)C(=O)O)C(=O)N[C@@H](CC(=O)O)C(=O)N[C@@H](Cc1ccccc1)C(=O)N[C@H](C(=O)N[C@@H](CCC(=O)O)C(=O)N[C@@H](Cc1c[nH]c2ccccc12)C(=O)N[C@@H](CC(C)C)C(=O)N[C@@H](CC(C)C)C(=O)N[C@@H](CCC(=O)O)C(=O)NCC(=O)NCC(=O)N1CCC[C@H]1C(=O)N[C@@H](CO)C(=O)N[C@@H](CO)C(=O)NCC(=O)N[C@@H](C)C(=O)N1CCC[C@H]1C(=O)N1CCC[C@H]1C(=O)N1CCC[C@H]1C(=O)N[C@@H](CO)C(=O)O)[C@@H](C)CC` [HEC-PT67] (H-H[Aib]QGT[αMePhe(2-F)]TSDYSILLDEIAQK([AEEA-AEEA-γGlu-C20 diacid])DFIEWLLEGGPSSGAPPPS-OH), the pEC50 (in general, −log10 of the EC50, conventionally taken in molar units) in test [1] is 9.17; in test [2], 7.24; in test [3], 9.40.

For `CC[C@H](C)[C@H](NC(=O)[C@H](CO)NC(=O)[C@H](Cc1ccc(O)cc1)NC(=O)[C@H](CC(=O)O)NC(=O)[C@H](CO)NC(=O)[C@@H](NC(=O)[C@](C)(Cc1ccccc1F)NC(=O)[C@@H](NC(=O)CNC(=O)[C@H](Cc1c[nH]cn1)NC(=O)C(C)(C)NC(=O)[C@@H](N)Cc1ccc(O)cc1)[C@@H](C)O)[C@@H](C)O)C(=O)N[C@@H](CC(C)C)C(=O)N[C@@H](CC(C)C)C(=O)N[C@@H](CC(=O)O)C(=O)N[C@@H](CCC(=O)O)C(=O)N[C@@H](CCCCNC(=O)COCCOCCNC(=O)CC[C@H](NC(=O)CCCCCCCCCCCCCCCCC(=O)O)C(=O)O)C(=O)N[C@@H](CCCNC(=N)N)C(=O)N[C@@H](CCC(N)=O)C(=O)NC(C)(C)C(=O)N[C@@H](CCC(=O)O)C(=O)N[C@@H](Cc1ccccc1)C(=O)N[C@H](C(=O)N[C@@H](CCC(=O)O)C(=O)N[C@@H](Cc1c[nH]c2ccccc12)C(=O)N[C@@H](CC(C)C)C(=O)N[C@@H](CC(C)C)C(=O)N[C@@H](C)C(=O)NCC(=O)NCC(=O)N1CCC[C@H]1C(=O)N[C@@H](CO)C(=O)N[C@@H](CO)C(=O)NCC(=O)N[C@@H](C)C(=O)N1CCC[C@H]1C(=O)N1CCC[C@H]1C(=O)N1CCC[C@H]1C(=O)N[C@@H](CO)C(N)=O)[C@@H](C)CC` [HEC-PT109], the pEC50 was 9.85 in test [1], 9.15 in test [2] and 10.28 in test [3].
